{"source": "patent US10398692B2", "about": "“Terconazole composition and method” (Curatek Pharmaceuticals Holding, Inc., priority 2006, dated 2019)", "key": {"[1]": {"settings": "cited from earlier work"}, "[2]": {"experiment": "Solubility of terconazole in water at adjusted pH (Table 1A)", "assay_type": "physicochemical", "settings": "for solubility: water", "from_the_text": "In a related experiment, the solubility of terconazole in water was increased to about 2.9 percent by weight using acetic acid at pH of about 5."}}, "data": [{"compound": "CC(C)N1CCN(c2ccc(OCC3COC(Cn4cncn4)(c4ccc(Cl)cc4Cl)O3)cc2)CC1", "note": "(stereo not drawn) [Terconazole, cis-1-[p[[2-(2,4-dichlorophenyl)-2-(1H-1,2,4-triazol-1-ylmethyl)-1,3-dioxolan-4-yl]methoxy]phenyl]-4-isopropylpiperazine]", "values": [{"measurement": "solubility in water", "setting": "[1]", "result": "about 0.007 percent by weight"}, {"measurement": "solubility", "setting": "[2]; aqueous buffer, pH 4.23 adjusted with HCl", "result": 3400, "unit": "µg/mL"}, {"measurement": "solubility of terconazole in water", "setting": "[2]; using acetic acid at pH of about 5", "result": "about 2.9 percent by weight"}, {"measurement": "solubility", "setting": "[2]; aqueous buffer, pH 4.99 adjusted with acetic acid", "result": 29400, "unit": "µg/mL"}, {"measurement": "solubility", "setting": "[2]; pH 7.1, pH not adjusted", "result": 70, "unit": "µg/mL"}]}]}
